Source: patent publication US10975056B2 (GlaxoSmithKline Intellectual Property Development Limited, priority 2016, dated 2021)
Where “and” joins values, the source holds several entries; their conditions need not be identical. Equal entries are not always repeated. Structures can show the parent of a compound that is named as a salt. Where two headings read alike, the source gives them in different places.

Columns and labels:
[1] = system: erythroid progenitor cells (EPCs); test: Fetal hemoglobin (HbF) ELISA in day 7 erythroid progenitor cells; assay type: cell-based, human; settings: HbF ELISA, day 7 EPCs, 5 days; for EC50: Homo sapiens, Erythroid progenitor cell, read-out: EPC ELISA (pEC50 category) (converted);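 on all read-outs here: for fetal hemoglobin induction normalized to vehicle-treated cells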
Summary of the method: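 Read-out was OD450 from an HRP/TMB sandwich ELISA on lysates, normalized to DMSO-only control wells. Thawed day 7 EPCs from human marrow CD34+ cells had been treated for 5 days at 37° C with Compound A, 22 concentrations […].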

[2] = target: DNMT1 (Homo sapiens, UniProt P26358); test: DNMT1 biochemical activity, breaklight assay and/or SPA assay
DNMT1, sequence (P26358 whole entry, looked up): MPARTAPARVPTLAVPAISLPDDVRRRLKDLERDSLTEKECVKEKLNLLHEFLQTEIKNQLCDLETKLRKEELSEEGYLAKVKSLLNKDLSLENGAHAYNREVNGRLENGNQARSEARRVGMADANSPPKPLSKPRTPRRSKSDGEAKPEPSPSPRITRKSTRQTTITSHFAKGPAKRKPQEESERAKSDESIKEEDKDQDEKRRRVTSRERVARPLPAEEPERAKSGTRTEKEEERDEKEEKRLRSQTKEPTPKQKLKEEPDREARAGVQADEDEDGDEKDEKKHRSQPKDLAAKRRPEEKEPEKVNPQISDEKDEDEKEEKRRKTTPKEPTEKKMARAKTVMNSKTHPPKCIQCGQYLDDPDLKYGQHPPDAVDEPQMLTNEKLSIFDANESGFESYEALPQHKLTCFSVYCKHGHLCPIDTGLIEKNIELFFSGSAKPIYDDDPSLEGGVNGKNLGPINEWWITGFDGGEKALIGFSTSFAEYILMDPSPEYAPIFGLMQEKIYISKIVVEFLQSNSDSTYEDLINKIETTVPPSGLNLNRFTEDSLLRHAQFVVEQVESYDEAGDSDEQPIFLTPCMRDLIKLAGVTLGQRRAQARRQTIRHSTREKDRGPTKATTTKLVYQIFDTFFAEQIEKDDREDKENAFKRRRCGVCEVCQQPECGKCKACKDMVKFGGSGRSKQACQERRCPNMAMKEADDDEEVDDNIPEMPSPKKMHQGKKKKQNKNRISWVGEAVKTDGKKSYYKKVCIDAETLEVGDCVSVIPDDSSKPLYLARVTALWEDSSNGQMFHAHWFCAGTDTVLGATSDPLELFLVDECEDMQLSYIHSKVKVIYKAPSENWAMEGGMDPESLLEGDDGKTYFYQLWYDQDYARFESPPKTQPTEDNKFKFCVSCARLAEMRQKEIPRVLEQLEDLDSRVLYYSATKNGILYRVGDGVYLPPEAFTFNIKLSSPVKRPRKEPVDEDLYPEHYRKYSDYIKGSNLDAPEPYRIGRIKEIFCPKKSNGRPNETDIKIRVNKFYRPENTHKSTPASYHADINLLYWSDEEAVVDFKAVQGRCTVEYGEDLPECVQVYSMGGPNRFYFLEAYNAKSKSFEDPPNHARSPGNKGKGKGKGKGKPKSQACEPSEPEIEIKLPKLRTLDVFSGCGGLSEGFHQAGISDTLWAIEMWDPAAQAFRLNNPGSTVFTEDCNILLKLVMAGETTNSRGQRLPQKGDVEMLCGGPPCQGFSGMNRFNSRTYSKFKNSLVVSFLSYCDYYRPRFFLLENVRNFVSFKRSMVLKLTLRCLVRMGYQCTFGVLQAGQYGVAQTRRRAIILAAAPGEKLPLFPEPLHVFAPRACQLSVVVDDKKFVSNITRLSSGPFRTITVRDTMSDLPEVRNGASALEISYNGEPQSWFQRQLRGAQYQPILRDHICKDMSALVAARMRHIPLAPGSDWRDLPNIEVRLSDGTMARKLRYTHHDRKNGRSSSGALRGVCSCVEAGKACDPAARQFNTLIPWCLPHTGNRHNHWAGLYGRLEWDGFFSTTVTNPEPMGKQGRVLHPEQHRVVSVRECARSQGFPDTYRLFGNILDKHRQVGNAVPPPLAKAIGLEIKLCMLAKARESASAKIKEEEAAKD

[3] = binned activity in either the breaklight or the SPA assay
[4] = binned activity in either the breaklight or the SPA assay, read-out: DNMT1 BioChemical (pIC50 category) (converted)
[5] = breaklight assay and/or SPA assay, repeated experimental runs, read-out: average pIC50 against DNMT1 (converted)

For `CCc1c(C#N)c(SC(C(N)=O)c2ccccc2)nc(N2CCC(NCC(C)(C)OC)CC2)c1C#N` (centres unmarked) [Example 446, 2-((3,5-dicyano-4-ethyl-6-(4-((2-methoxy-2-methylpropyl)amino)piperidin-1-yl)pyridin-2-yl)thio)-2-phenylacetamide], the EC50 [1] was less than 316 nM and the “DNMT1 BioChemical (pIC50 category)” value [2, 3] was “D (Category D: ≥6.5)”.

With `CCc1c(C#N)c(SC(C(N)=O)c2ccccc2)nc(N(C)CCN2CC[C@@H](N)C2)c1C#N` (stereo partly drawn) [Example 529, 2-((6-((2-((R)-3-aminopyrrolidin-1-yl)ethyl)(methyl)amino)-3,5-dicyano-4-ethylpyridin-2-yl)thio)-2-phenylacetamide] the EC50 [1] was 316 to 1000 nM and the “DNMT1 BioChemical (pIC50 category)” value [2, 3] was “D (Category D: ≥6.5)”.

Compound `CCc1c(C#N)c(SCc2ccc(OCCN(C)C)cc2)nc(N2CCCN(C)CC2)c1C#N` [Example 377, 2-(4-(2-(Dimethylamino)ethoxy)benzylthio)-4-ethyl-6-(4-methyl-1,4-diazepan-1-yl)pyridine-3,5-dicarbonitrile] has an EC50 [1] greater than 31600 nM, an IC50 [2, 4] of 1000 to 31600 nM and an IC50 [2, 5] of no less than 1000 nM.

In the case of `CCc1c(C#N)c(SC(C(N)=O)c2ccccc2)nc(N(C)Cc2ncc[nH]2)c1C#N` (centres unmarked) [Example 364, 2-((6-(((1H-Imidazol-2-yl)methyl)(methyl)amino)-3,5-dicyano-4-ethylpyridin-2-yl)thio)-2-phenylacetamide], the EC50 [1] is reported as less than 316 nM and the “DNMT1 BioChemical (pIC50 category)” value [2, 3] is reported as “D (Category D: ≥6.5)”.

`CC(C)(N)C(=O)NC1CCN(c2nc(SC(C(N)=O)c3ccccc3)c(C#N)c(C3CC3)c2C#N)CC1` (centres unmarked) [Example 374, 2-Amino-N-(1-(6-((2-amino-2-oxo-1-phenylethyl)thio)-3,5-dicyano-4-cyclopropylpyridin-2-yl)piperidin-4-yl)-2-methylpropanamide] was tested, and the EC50 [1] was 316 to 1000 nM and the “DNMT1 BioChemical (pIC50 category)” value [2, 3] was “D (Category D: ≥6.5)”.

In the case of `CCc1c(C#N)c(SC(C(N)=O)c2ccccc2)nc(N(C)CC(=O)N2CC[C@@H](O)C2)c1C#N` (stereo partly drawn) [Example 613, 2-((3,5-dicyano-4-ethyl-6-((2-((R)-3-hydroxypyrrolidin-1-yl)-2-oxoethyl)(methyl)amino)pyridin-2-yl)thio)-2-phenylacetamide], the EC50 [1] is reported as less than 316 nM and the “DNMT1 BioChemical (pIC50 category)” value [2, 3] is reported as “D (Category D: ≥6.5)”.

`CCc1c(C#N)c(SC(C(N)=O)c2ccccc2)nc(N2CCCN(CC(C)(C)O)CC2)c1C#N` (centres unmarked) [Example 194, 2-((3,5-Dicyano-4-ethyl-6-(4-(2-hydroxy-2-methylpropyl)-1,4-diazepan-1-yl)pyridin-2-yl)thio)-2-phenylacetamide] was tested, and the EC50 [1] was less than 316 nM and the IC50 [2, 4] was 316 to 1000 nM.

With `CCc1c(C#N)c(SC(C(N)=O)c2cccc(F)c2F)nc(N2CC[C@H](O)C2)c1C#N` (some centres unmarked) [Example 429] the EC50 [1] was 316 to 1000 nM and the IC50 [2, 4] was 316 to 1000 nM.

For `CCc1c(C#N)c(SC(C(N)=O)c2ccccc2)nc(N2CCC(N(C)CC(C)(C)O)CC2)c1C#N` (centres unmarked) [Example 444, 2-((3,5-dicyano-4-ethyl-6-(4-((2-hydroxy-2-methylpropyl)(methyl)amino)piperidin-1-yl)pyridin-2-yl)thio)-2-phenylacetamide], the EC50 [1] was less than 316 nM and the “DNMT1 BioChemical (pIC50 category)” value [2, 3] was “D (Category D: ≥6.5)”.

`CCc1c(C#N)c(SC(C(N)=O)c2ccccc2)nc(N2CC[C@@H](N(C)C)C2)c1C#N` (stereo partly drawn) [Example 536, 2-((3,5-dicyano-6-((R)-3-(dimethylamino)pyrrolidin-1-yl)-4-ethylpyridin-2-yl)thio)-2-phenylacetamide] was tested, and the EC50 [1] was 316 to 1000 nM and the “DNMT1 BioChemical (pIC50 category)” value [2, 3] was “D (Category D: ≥6.5)”.

For `CCc1c(C#N)c(S[C@@H](C(N)=O)c2ccccc2)nc(N2CC[C@](O)(CN)C2)c1C#N` [Example 624, (R)-2-((6-((S)-3-(aminomethyl)-3-hydroxypyrrolidin-1-yl)-3,5-dicyano-4-ethylpyridin-2-yl)thio)-2-phenylacetamide], the “EPC ELISA (pEC50 category)” value [1] was “B (Category B: 4.5 ≤ x < 6.0)” and the “DNMT1 BioChemical (pIC50 category)” value [2, 3] was “D (Category D: ≥6.5)”.

In the case of `CCc1c(C#N)c(SC(C(N)=O)c2ccccc2)nc(N2CCN(C(=O)C3(N)COC3)CC2)c1C#N` (centres unmarked) [Example 139, 2-((6-(4-(3-Aminooxetane-3-carbonyl)piperazin-1-yl)-3,5-dicyano-4-ethylpyridin-2-yl)thio)-2-phenylacetamide, Formic Acid Salt], the EC50 [1] is reported as 316 to 1000 nM and the “DNMT1 BioChemical (pIC50 category)” value [2, 3] is reported as “D (Category D: ≥6.5)”.

`CCc1c(C#N)c(SCc2ccc(N(C)S(C)(=O)=O)cc2)nc(N2CCOC(CN)C2)c1C#N` (centres unmarked) [Example 591, N-(4-(((6-(2-(aminomethyl)morpholino)-3,5-dicyano-4-ethylpyridin-2-yl)thio)methyl)phenyl)-N-methylmethanesulfonamide] was tested, and the EC50 [1] was less than 316 nM and the “DNMT1 BioChemical (pIC50 category)” value [2, 3] was “D (Category D: ≥6.5)”.

For `CCc1c(C#N)c(S[C@@H](C(N)=O)c2ccc(OC)cc2)nc(N2CC[C@H](O)C2)c1C#N` [Example 422, (R)-2-((3,5-dicyano-4-ethyl-6-((S)-3-hydroxypyrrolidin-1-yl)pyridin-2-yl)thio)-2-(4-methoxyphenyl)acetamide], the EC50 [1] was less than 316 nM and the “DNMT1 BioChemical (pIC50 category)” value [2, 3] was “D (Category D: ≥6.5)”.

With `CCc1c(C#N)c(SC(C(N)=O)c2ccccc2)nc(N2CCC(NC(=O)[C@@H](N)CO)CC2)c1C#N` (some centres unmarked) [Example 399] the EC50 [1] was 1000 to 31600 nM and the “DNMT1 BioChemical (pIC50 category)” value [2, 3] was “D (Category D: ≥6.5)”.

`CCc1c(C#N)c(SCc2ccccc2)nc(N2CCC(NC(=O)C(C)(C)N)CC2)c1C#N` [Example 95, 2-Amino-N-(1-(6-(benzylthio)-3,5-dicyano-4-ethylpyridin-2-yl)piperidin-4-yl)-2-methylpropanamide, Formic Acid Salt] was tested, and the EC50 [1] was 1000 to 31600 nM and the IC50 [2, 4] was 316 to 1000 nM.

`N#Cc1c(SC(C(N)=O)c2ccccc2)nc(N2CCNC(=O)CC2)c(C#N)c1C1CC1` (centres unmarked) [Example 110, 2-{[3,5-Dicyano-4-cyclopropyl-6-(5-oxo-1,4-diazepan-1-yl)pyridin-2-yl]sulfanyl}-2-phenylacetamide] gave an EC50 [1] of 1000 to 31600 nM, an IC50 [2, 4] of 316 to 1000 nM and an IC50 [2, 5] of 316 to 1000 nM.

For `CCc1c(C#N)c(SCc2ccc(CNC(C)=O)cc2)nc(N2CCC(OC(=O)[C@@H](N)C(C)C)CC2)c1C#N` [Example 289, (S)-1-(6-((4-(Acetamidomethyl)benzyl)thio)-3,5-dicyano-4-ethylpyridin-2-yl)piperidin-4-yl 2-amino-3-methylbutanoate], the EC50 [1] was 1000 to 31600 nM and the IC50 [2, 4] was 316 to 1000 nM.

With `CCc1c(C#N)c(SC(C(N)=O)c2ccc(F)cc2)nc(N2CCC(NCC(C)(C)O)CC2)c1C#N` (centres unmarked) [Example 513, 2-((3,5-dicyano-4-ethyl-6-(4-((2-hydroxy-2-methylpropyl)amino)piperidin-1-yl)pyridin-2-yl)thio)-2-(4-fluorophenyl)acetamide] the EC50 [1] was less than 316 nM and the IC50 [2, 4] was less than 316 nM.

In the case of `CCc1c(C#N)c(SC(C(N)=O)c2ccncc2)nc(N(C)C)c1C#N` (centres unmarked) [Example 27, 2-((3,5-dicyano-6-(dimethylamino)-4-ethylpyridin-2-yl)thio)-2-(pyridin-4-yl)acetamide], the EC50 [1] is reported as greater than 31600 nM and the “DNMT1 BioChemical (pIC50 category)” value [2, 3] is reported as “D (Category D: ≥6.5)”.

In the case of `CCc1c(C#N)c(OCCN(C)C)nc(SC(C(N)=O)c2ccccc2)c1C#N` (centres unmarked) [Example 174, 2-((3,5-Dicyano-6-(2-(dimethylamino)ethoxy)-4-ethylpyridin-2-yl)thio)-2-phenylacetamide], the EC50 [1] is reported as 316 to 1000 nM and the IC50 [2, 4] is reported as 316 to 1000 nM.

In the case of `CCc1c(C#N)c(SC(C(N)=O)c2cncc(C)c2)nc(N2CCCN(C)CC2)c1C#N` (centres unmarked) [Example 266], the EC50 [1] is reported as 316 to 1000 nM, the IC50 [2, 4] is reported as 1000 to 31600 nM and the IC50 [2, 5] is reported as ≥ 1000 nM and 2000 nM.

Compound `CCc1c(C#N)c(S[C@@H](C(N)=O)c2ccccc2)nc(N2CC[C@@H](O)C2)c1C#N` [Example 134, (R)-2-((3,5-Dicyano-4-ethyl-6-((R)-3-hydroxypyrrolidin-1-yl)pyridin-2-yl)thio)-2-phenylacetamide] has an EC50 [1] of 1000 to 31600 nM and an IC50 [2, 4] of 316 to 1000 nM.

`CCc1c(C#N)c(SC(C(N)=O)c2ccccc2)nc(N(C)CCO)c1C#N` (centres unmarked) [Example 147, 2-(3,5-Dicyano-4-ethyl-6-((2-hydroxyethyl)(methyl)amino)pyridin-2-ylthio)-2-phenylacetamide] gave an EC50 [1] of 316 to 1000 nM and an IC50 [2, 4] of 316 to 1000 nM.

For `CCc1c(C#N)c(SC(C(N)=O)c2ccccc2)nc(N2CCC3(CCCN(CC4CC4)C3)CC2)c1C#N` (centres unmarked) [Example 119, 2-((3,5-Dicyano-6-(2-(cyclopropylmethyl)-2,9-diazaspiro[5.5]undecan-9-yl)-4-ethylpyridin-2-yl)thio)-2-phenylacetamide hydrochloride], the EC50 [1] was less than 316 nM, the IC50 [2, 4] was 316 to 1000 nM and the IC50 [2, 5] was 316 to 1000 nM and 398 nM.

With `CCc1c(C#N)c(SC(C(N)=O)c2ccccc2)nc(N(C)CCN2CC[C@H](O)C2)c1C#N` (stereo partly drawn) [Example 486, 2-(3,5-dicyano-4-ethyl-6-((2-((S)-3-hydroxypyrrolidin-1-yl)ethyl)(methyl)amino)pyridin-2-ylthio)-2-phenylacetamide] the EC50 [1] was less than 316 nM and the “DNMT1 BioChemical (pIC50 category)” value [2, 3] was “D (Category D: ≥6.5)”.

`CCc1c(C#N)c(SC(C(N)=O)c2ccccc2)nc(N2CCO[C@@H](CNC(=O)CN)C2)c1C#N` (stereo partly drawn) [Example 598, 2-amino-N-(((2S)-4-(6-((2-amino-2-oxo-1-phenylethyl)thio)-3,5-dicyano-4-ethylpyridin-2-yl)morpholin-2-yl)methyl)acetamide] was tested, and the EC50 [1] was 1000 to 31600 nM and the “DNMT1 BioChemical (pIC50 category)” value [2, 3] was “D (Category D: ≥6.5)”.

`CCc1c(C#N)c(N[C@@H](C(N)=O)c2ccccc2)nc(N2CCCN(CC)CC2)c1C#N` [Example 162, (R)-2-((3,5-Dicyano-4-ethyl-6-(4-ethyl-1,4-diazepan-1-yl)pyridin-2-yl)amino)-2-phenylacetamide] gave an EC50 [1] of 1000 to 31600 nM and an IC50 [2, 4] of 1000 to 31600 nM.

`CCc1c(C#N)c(SC(C(N)=O)c2ccc(C)cn2)nc(N(C)C)c1C#N` (centres unmarked) [Example 238, 2-((3,5-Dicyano-6-(dimethylamino)-4-ethylpyridin-2-yl)thio)-2-(5-methylpyridin-2-yl)acetamide] was tested, and the EC50 [1] was 1000 to 31600 nM and the “DNMT1 BioChemical (pIC50 category)” value [2, 3] was “D (Category D: ≥6.5)”.
